Test results as given in patent US10080807B2 (LIPOMEDIX PHARMACEUTICALS LTD., priority 2014, dated 2018).

Legend:
[1] = tested on: C26 (colon carcinoma) mouse tumor model; assay: Anti-tumor effect in colon carcinoma tumor model (Example 6); type: in vivo; conditions: C26 ip in BALB/c mice; gemcitabine 100 mg/kg ip or paclitaxel 15 mg/kg ip days 5, 8, 12, 15, alone or with prodrug 30 mg/kg iv; 45 days
Excerpt: C26 (colon carcinoma) mouse tumor model was used by injecting BALB/c F intraperitoneally with 1 million tumor cells.

[2] = tested on: N87 human gastric tumor model; assay: Anti-tumor effect in gastric tumor model (Example 7); type: in vivo
Excerpt: An N87 human gastric tumor model was selected, and established by inoculating 10^6 N87 tumor cells into the footpad of nude mice via subcutaneous (sc) injection. The day of sc injection with tumor cells was defined as study day zero.

[3] = tested on: human A375 melanoma subcutaneous tumor model; conditions: prodrug 25 mg/kg iv days 11, 18; paclitaxel 15 mg/kg ip days 11, 14, 18, 21; alone or combined
Description: A human A375 melanoma subcutaneous tumor model was selected, and established by inoculating tumor cells into nude mice via subcutaneous (sc) injection. The day of sc injection with tumor cells was defined as study day zero.
The tumor size of the animals (n=6) in each treatment group was measured, and the median tumor size (in mm) is shown in FIG. 6 as a function of days post tumor inoculation.

[4] = tested on: N87 human gastric tumor model; conditions: N87 in footpad of nude mice; mitomycin C 5 mg/kg iv or prodrug 35 mg/kg iv days 6, 13; paclitaxel 15 mg/kg ip days 6, 10, 13, 17; mice with unacceptable toxicity removed
Description: An N87 human gastric tumor model was selected, and established by inoculating N87 tumor cells into the footpad of nude mice via subcutaneous (sc) injection. The day of sc injection with tumor cells was defined as study day zero.
The tumor size of the animals in each treatment group was measured.

[5] = tested on: subcutaneous 4T1 breast mouse tumor model; conditions: day 5 iv; mitomycin C 6 mg/kg; prodrug 40 mg/kg; combination prodrug 30 mg/kg + liposome-entrapped doxorubicin 8 mg/kg; median tumor size
Excerpt: A subcutaneous 4T1 breast mouse tumor model was selected, and established by inoculating tumor cells subcutaneously into BALB/c f mice. The day of sc injection with tumor cells was defined as study day zero.

Row | Structure (SMILES) | survival (in words) [1] | animals tumor free at observation day 50 ([2]; N87 in footpad of nude mice, prodrug 25 mg/kg iv days 5, 12, paclitaxel 15 mg/kg ip days 5, 8, 12, 15) | reduction in tumor volume ([2]; individual tumor volumes measured to 48 days post inoculation (FIGS. 5C-5H)) | tumor growth (in words) [3] | tumor size (in words) [4] | tumor growth (in words) [5]
1 | Nc1ccn([C@@H]2O[C@H](CO)[C@@H](O)C2(F)F)c(=O)n1 [gemcitabine, 2′-deoxy-2′,2′-difluoro-cytidine] | fared poorly, with nearly all animals failing to survive the study period | – | – | – | – | –
2 | CC(=O)O[C@H]1C(=O)[C@@]2(C)[C@H]([C@H](OC(=O)c3ccccc3)[C@]3(O)C[C@H](OC(=O)[C@H](O)[C@@H](NC(=O)c4ccccc4)c4ccccc4)C(C)=C1C3(C)C)[C@]1(OC(C)=O)CO[C@@H]1C[C@@H]2O [paclitaxel] | fared poorly, with nearly all animals failing to survive the study period | two of eight animals | Reduction in tumor volume was not observed | either a shorter plateau period of attenuated tumor growth or an increase in tumor growth sooner than animals treated with the combination therapy | continuous increase in tumor size | –
3 | CO[C@@]12[C@H](COC(N)=O)C3=C(C(=O)C(C)=C(N)C3=O)N1C[C@@H]1N[C@@H]12 [mitomycin C] | – | – | – | – | continuous increase in tumor size | continued growth in tumor size
